Assay results: paper PMC5979531, “Structural Requirements of Alkylglyceryl-L-Ascorbic Acid Derivatives for Melanogenesis Inhibitory Activity” (International Journal of Molecular Sciences, 2018)

Legend:
B16 melanoma 4A5 cells = assay: Theophylline-stimulated melanogenesis inhibition (melanin content); type: cell-based, murine; conditions: Mus musculus, 72 h
Outline: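 Murine B16 4A5 cells were cultured 24 h in DMEM, then exposed to test compound plus 1 mM theophylline for 72 h. Melanin content (optical density) and viability were measured. Inhibition % was computed from vehicle versus treated OD corrected for viability (%), and IC50 was determined graphically.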

[1] = Cell viability of B16 melanoma 4A5 cells; type: cell-based, murine; conditions: mouse, B16 4A5 cells
Outline: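 Murine B16 4A5 melanoma cells in DMEM, cultured 24 h, then exposed 72 h to compound together with 1 mM theophylline. Viability measured afterwards; IC50 determined graphically.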

[2] = Stability in aqueous solution at elevated temperature (HPLC residual ratio); type: physicochemical; conditions: 20 mg/mL at 125 °C in the dark, after 3 h
Procedure: To determine stability, the samples were stored at 125 °C, and the residual ratio was calculated by measuring the remaining compound by HPLC. HPLC mobile phase conditions were as follows: AsA was described previously, 6 and 20 were 40% methanol containing 0.1% formic acid at flow rate of 0.2 mL/min [52, 53].

tyrosinase from mushroom = assay: Mushroom tyrosinase activity; type: biochemical
Procedure: Tyrosinase activities using L-tyrosine or L-DOPA as a substrate were determined according to the protocols described previously. Briefly, samples, L-tyrosine (2.5 mM, or L-DOPA, 3.0 mM), mushroom tyrosinase (46 units/mL), and phosphate buffer were mixed in a 96-well plate and incubated at 25 °C. (L-tyrosine; 30 min, L-DOPA; 5 min). The absorbance was then measured at 492 nm.

mammalian tyrosinase = target: T1, mammalian tyrosinase (Mus musculus, UniProt P11344); assay: Mammalian tyrosinase activity (B16 cell lysate, L-DOPA); type: biochemical, murine; conditions: L-DOPA as substrate
T1 construct: the cells were solubilized using 0.1% Triton X-100; endogenous in cells; host or cells: B16 melanoma cells (lysate, after 72 h of 1 mM theophylline)
T1 sequence (P11344 19-533): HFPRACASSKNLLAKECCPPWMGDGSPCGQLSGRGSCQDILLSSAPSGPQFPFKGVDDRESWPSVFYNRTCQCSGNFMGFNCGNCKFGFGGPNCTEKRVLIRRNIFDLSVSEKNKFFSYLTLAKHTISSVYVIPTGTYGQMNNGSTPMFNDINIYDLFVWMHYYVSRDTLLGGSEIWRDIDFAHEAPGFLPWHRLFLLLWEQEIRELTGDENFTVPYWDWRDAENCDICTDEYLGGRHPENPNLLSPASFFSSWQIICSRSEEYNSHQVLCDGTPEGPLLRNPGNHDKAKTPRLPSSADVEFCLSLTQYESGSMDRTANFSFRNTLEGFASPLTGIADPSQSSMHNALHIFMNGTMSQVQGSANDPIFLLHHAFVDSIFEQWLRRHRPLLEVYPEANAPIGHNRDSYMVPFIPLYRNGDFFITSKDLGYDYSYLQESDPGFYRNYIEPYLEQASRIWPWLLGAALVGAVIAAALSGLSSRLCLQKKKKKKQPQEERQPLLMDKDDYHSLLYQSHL
Procedure: Tyrosinase activity using L-DOPA as a substrate was determined according to protocols described previously. Briefly, B16 cells were seeded into 6-well plates in DMEM. After preculture with theophylline (1 mM) for 72 h, the cells were solubilized using 0.1% Triton X-100. Fifty microliters of each lysate and sample was then mixed with 100 µL 2 mM L-DOPA. After the mixtures were incubated for 30 min at 37 °C, the absorbance of each solution at 492 nm was measured.

tyrosinase mRNA = assay: Expression of tyrosinase mRNA (qRT-PCR); type: cell-based, murine; conditions: 30 µM, B16 4A5 cells, theophylline 1 mM, 72 h
Procedure: (§1) The expression of tyrosinase, TRP-1, and TRP-2 mRNA was assessed according to previously reported methods. Briefly, murine B16 melanoma 4A5 cells were seeded into 96-well plates in DMEM. After 24 h of culture, a test compound and theophylline (1 mM) were added and incubated for 72 h. Then, the amount of each mRNA was quantified by quantitative reverse transcription PCR.

TRP-1 mRNA = assay: Expression of TRP-1 mRNA (qRT-PCR); type: cell-based, murine; conditions: 30 µM, B16 4A5 cells, theophylline 1 mM, 72 h
Procedure: as §1

TRP-2 mRNA = assay: Expression of TRP-2 mRNA (qRT-PCR); type: cell-based, murine; conditions: B16 4A5 cells, theophylline 1 mM, 72 h
Procedure: as §1

tyrosinase protein = assay: Expression of tyrosinase protein (western blotting); type: cell-based, murine; conditions: B16 4A5 cells, theophylline 1 mM, 72 h
Procedure: The expression of tyrosinase protein was assessed according to a previously reported method. Briefly, murine B16 melanoma 4A5 cells were seeded into 6-well plates in DMEM. After 24 h of culture, a test compound and theophylline (1 mM) were added and incubated for 72 h. The expression of tyrosinase protein then was measured by western blotting.

[3] = system: tyrosinase activity in B16 melanoma 4A5 cells; assay: Tyrosinase activity in cultured B16 cells; type: cell-based, murine; conditions: B16 4A5 cells, L-DOPA as substrate
Procedure: Tyrosinase activity in cultured cells was determined according to protocols described previously with modifications. Briefly, B16 melanoma 4A5 cells (4 × 10^3 cells/100 µL/well) were seeded into 96-well plates in DMEM. After pre-culture with sample and theophylline (1 mM) for 72 h, the cells were solubilized using 0.1% Triton X-100, and then each lysate was mixed with 50 μL 2 mM L-DOPA. After the mixtures were incubated for 1 h at 37 °C, the absorbance of the solution at 492 nm was measured using the microplate reader.

IC50 (B16 melanoma 4A5 cells; theophylline (1 mM)-stimulated B16 melanoma 4A5 cells): 81.4 µM | Residual ratio in aqueous solution [2]: 85% | Inhibition (%) of mushroom tyrosinase (tyrosinase from mushroom; Substrate: L-DOPA, 30 µM): −1.5 ± 1.5% | Inhibition (%) of mushroom tyrosinase (tyrosinase from mushroom; Substrate: L-DOPA, 100 µM): −1.0 ± 0.7% | Inhibition (%) of mushroom tyrosinase (tyrosinase from mushroom; Substrate: L-Tyrosine, 30 µM): −1.5 ± 6.7% | Inhibition (%) of mushroom tyrosinase (tyrosinase from mushroom; Substrate: L-Tyrosine, 100 µM): 0.9 ± 1.4% | activity on mammalian tyrosinase (in words) (mammalian tyrosinase): did not show activity
Compound: CCCCCCOC1=C(OCC(O)CO)[C@@H]([C@@H](O)CO)OC1=O (stereo partly drawn) [compound 6, 3-O-(2,3-dihydroxypropyl)-2-O-hexyl-AsA]
inhibition at 3 µM (B16 melanoma 4A5 cells; 3 µM, theophylline-stimulated B16 4A5 cells): -1.8 ± 4.9% | inhibition at 10 µM (B16 melanoma 4A5 cells; 10 µM, theophylline-stimulated B16 4A5 cells): 5.6 ± 2% | inhibition at 30 µM (B16 melanoma 4A5 cells; 30 µM, theophylline-stimulated B16 4A5 cells): 26.2 ± 6% | inhibition at 100 µM (B16 melanoma 4A5 cells; 100 µM, theophylline-stimulated B16 4A5 cells): 53.1 ± 3.1% | viability at 72 h, 3 µM ([1]; 3 µM): 102% | viability at 72 h, 10 µM ([1]; 10 µM): 96.1% | viability at 72 h, 30 µM ([1]; 30 µM): 88.4% | viability at 72 h, 100 µM ([1]; 100 µM): 77.1% | Tyrosinase mRNA/β-actin mRNA (tyrosinase mRNA): 0.60 ± 0.07 | TRP-1 mRNA/β-actin mRNA (TRP-1 mRNA): 0.48 ± 0.15 | TRP-2 mRNA/β-actin mRNA (TRP-2 mRNA; 30 µM): 0.53 ± 0.18 | TRP-2 mRNA/β-actin mRNA (TRP-2 mRNA; 100 µM): 0.70 ± 0.06 | expression of tyrosinase protein (in words) (tyrosinase protein): suppressed tyrosinase protein expression in a concentration-dependent manner | tyrosinase activity in cultured cells (in words) [3]: decreased tyrosinase activity in cultured cells
